# Results: PubChem BioAssay AID2060483 (Molecular Pharmacology Branch, DTP, NCI, 2025)
# Several values for one entry are separate records, joined by “and”; a condition that tells them apart may be missing. Equal values may be shown once.
# Tested on: K24384-001-R-PDC complex spheroids, viability
# Test: Anticancer human tumor K24384-001-R-PDC patient-derived pancreatic adenocarcinoma cell line growth inhibition [GQUAD]
# Settings: for viability, T/C: stronger effect = lower value
# Source text: DNA G-quadruplex Stabilizer Agents in Combinations in Complex Spheroids
# A high-throughput screen of multi-cell type tumor spheroids was designed to identify active combinations of DNA G-quadruplex stabilizer agents and targeted small molecules. Complex spheroids include a stromal component modeled by human endothelial cells (HUVEC) and fibroblasts modeled by human mesenchymal stem cells (MSCs). The concentration ranges selected for each drug and investigational agent were based upon clinically achievable concentrations if the clinical Cmax of the agent was known.
# Compounds. The drugs and investigational agents: pidnarulex (CX-5461; NSC782164), APTO-253 (NSC789042), BRACO-19 (NSC847499), peposertib (NSC802822), ceralasertib (NSC780249), elimusertib (NSC800525), camonsertib (NSC841442), AZD-1390 (NSC803789), olaparib (NSC753686), talazoparib (NSC767125), ART-558 (NSC835418), sotorasib (NSC818433), MRTX-1133 (NSC836407), SN-38 (NSC673596), topotecan (NSC609699), etoposide (NSC141540), doxorubicin (NSC123127), gemcitabine (NSC613327), 5-fluorouracil (NSC19893), paclitaxel (NSC125973), vemurafenib (NSC761431), panobinostat (NSC761190), R-306465 (JNJ-16241199; NSC773264), adavosertib (NSC754352), TP-3654 (NSC805149), carboplatin (NSC241240), KSQ-4279 (NSC840948), and staurosporine (NSC755774) were obtained from the National Cancer Institute (NCI) Developmental Therapeutics Program Chemical Repository (34). The FDA-approved anticancer drug set is available from the NCI Developmental Therapeutics Program. […] The stock solutions were prepared in dimethyl sulfoxide (DMSO, Sigma-Aldrich, St. Louis, MO, cat. D2650) at 800-fold the tested concentration and stored at -70 degrees C prior to their use. All drugs and investigational agents were tested over a range starting from a high concentration at or near the clinical Cmax and decreasing in half-log increments. If the clinical Cmax for an agent had not been determined, the highest concentration tested was 10 microM.
# 2.3 Cell Culture. All cells were maintained in an incubator at 37 degrees C and 5% CO2 with 95% humidity. The PDC lines were cultured according to standard operating procedures established by the NCI PDMR. All PDCs were thawed and cultured in Matrigel-coated flasks prepared with a working solution of 1X Ham's F-12 nutrient mix, without supplementation (Invitrogen, cat. 11765054), 100 U/mL penicillin-streptomycin (Invitrogen, cat. 15140122), and 2.5% Matrigel (Corning Inc., cat. 354248) for the first three passages. The 857933-349-R-J2-PDC line was cultured in 6C/Colon 1B media, which includes advanced DMEM/F-12 (Thermo Fisher Scientific, cat. 12634028), 10 mM HEPES (Thermo Fisher Scientific, cat. 15630080), 1X GlutaMAX supplement (Thermo Fisher Scientific, cat. 35050061), 0.1 mg/mL primocin (InvivoGen, cat. ant-pm-2), 10% defined fetal bovine serum, heat inactivated (HyClone Laboratories Inc., cat. SH30070.03HI), 50% L-WRN conditioned media (ATCC, cat. CRL-3276), 1.25 mM N-Acetyl-L-cysteine (Sigma-Aldrich, cat. A9165), 10 mM nicotinamide (Sigma-Aldrich, cat. N0636), 1X B-27 supplement (Thermo Fisher Scientific, cat. 17504044), 1X N-2 supplement (Thermo Fisher Scientific, cat. 17502048), 10 microM Y-27632 dihydrochloride (Tocris Bioscience, cat. 1254), and 50 ng/mL human EGF recombinant protein (Thermo Fisher Scientific, cat. PHG0311). The 485176-168-R4-J1-PDC line was cultured in Panc media, which includes all 6C/Colon 1B media components plus 100 ng/mL human FGF-10 (Thermo Fisher Scientific, cat. 100-26), 500 nM SB-431542 (Selleckchem, cat. S1067), and gastrin (Tocris, cat. 3006).
# […]
# 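Further: spheroids exposed to compounds for seven days.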
structure (smiles),measurement,setting,value
Cc1[nH]c2ccccc2c1CCNCc1ccc(/C=C/C(=O)NO)cc1,"viability, T/C",compound 0.000999 µM,103% and 120% and 118%
same,"viability, T/C",compound 0.00316 µM,96.8% and 103% and 92.5%
same,"viability, T/C",compound 0.00999 µM,92.9% and 110% and 98.1%
same,"viability, T/C",compound 0.0316 µM,90% and 89.4% and 90.5%
same,"viability, T/C",compound 0.0999 µM,56.2% and 61% and 48.7%
same,"viability, T/C",compound 0.316 µM,6.17% and 6.7% and 5.53%
same,IC50,curve of compound,0.116 µM and 0.126 µM and 0.101 µM
CC(C)(O)C1CCC(Nc2ccc3ncc(-c4cccc(C(F)(F)F)c4)n3n2)CC1 (stereo unspecified) + Cc1[nH]c2ccc(F)cc2c1-c1nc2c3cccnc3c3ncccc3c2[nH]1,IC50,"curve of first compound, second compound 0.0316 µM",1.63 µM
same,IC50,"curve of first compound, second compound 0.1 µM",2.03 µM
same,IC50,"curve of first compound, second compound 0.316 µM",1.93 µM
same,IC50,"curve of first compound, second compound 1 µM",1.71 µM
same,IC50,"curve of first compound, second compound 3.16 µM",0.447 µM
same,IC50,"curve of first compound, second compound 10 µM",0.548 µM
same,"viability, T/C","second compound 0.0316 µM, first compound 0.0316 µM",95.6%
same,"viability, T/C","second compound 0.0316 µM, first compound 0.1 µM",104%
same,"viability, T/C","second compound 0.0316 µM, first compound 0.316 µM",111%
same,"viability, T/C","second compound 0.0316 µM, first compound 1 µM",59.3%
same,"viability, T/C","second compound 0.0316 µM, first compound 3.16 µM",28.3%
same,"viability, T/C","second compound 0.0316 µM, first compound 10 µM",46.5%
same,"viability, T/C","second compound 0.1 µM, first compound 0.0316 µM",75.3%
same,"viability, T/C","second compound 0.1 µM, first compound 0.1 µM",105%
same,"viability, T/C","second compound 0.1 µM, first compound 0.316 µM",90.4%
same,"viability, T/C","second compound 0.1 µM, first compound 1 µM",68.1%
same,"viability, T/C","second compound 0.1 µM, first compound 3.16 µM",39.8%
same,"viability, T/C","second compound 0.1 µM, first compound 10 µM",33.2%
same,"viability, T/C","second compound 0.316 µM, first compound 0.0316 µM",103%
same,"viability, T/C","second compound 0.316 µM, first compound 0.1 µM",97.9%
same,"viability, T/C","second compound 0.316 µM, first compound 0.316 µM",108%
same,"viability, T/C","second compound 0.316 µM, first compound 1 µM",73.4%
same,"viability, T/C","second compound 0.316 µM, first compound 3.16 µM",28.5%
same,"viability, T/C","second compound 0.316 µM, first compound 10 µM",36.6%
same,"viability, T/C","second compound 1 µM, first compound 0.0316 µM",76.7%
same,"viability, T/C","second compound 1 µM, first compound 0.1 µM",99%
same,"viability, T/C","second compound 1 µM, first compound 0.316 µM",106%
same,"viability, T/C","second compound 1 µM, first compound 1 µM",68.8%
same,"viability, T/C","second compound 1 µM, first compound 3.16 µM",26.2%
same,"viability, T/C","second compound 1 µM, first compound 10 µM",30.9%
same,"viability, T/C","second compound 3.16 µM, first compound 0.0316 µM",64.6%
same,"viability, T/C","second compound 3.16 µM, first compound 0.1 µM",70.4%
same,"viability, T/C","second compound 3.16 µM, first compound 0.316 µM",56.2%
same,"viability, T/C","second compound 3.16 µM, first compound 1 µM",32.8%
same,"viability, T/C","second compound 3.16 µM, first compound 3.16 µM",15.4%
same,"viability, T/C","second compound 3.16 µM, first compound 10 µM",13.8%
same,"viability, T/C","second compound 10 µM, first compound 0.0316 µM",70.1%
same,"viability, T/C","second compound 10 µM, first compound 0.1 µM",85.7%
same,"viability, T/C","second compound 10 µM, first compound 0.316 µM",57.3%
same,"viability, T/C","second compound 10 µM, first compound 1 µM",39.4%
same,"viability, T/C","second compound 10 µM, first compound 3.16 µM",12.7%
same,"viability, T/C","second compound 10 µM, first compound 10 µM",14%
CCc1c2c(nc3ccc(O)cc13)-c1cc3c(c(=O)n1C2)COC(=O)[C@]3(O)CC,"viability, T/C",compound 0.000999 µM,99.6% and 68.6% and 79.3%
same,"viability, T/C",compound 0.00316 µM,52.9% and 58% and 61.9%
same,"viability, T/C",compound 0.00999 µM,65.9% and 39.2% and 63.5%
same,"viability, T/C",compound 0.0316 µM,43.4% and 33% and 29.1%
same,"viability, T/C",compound 0.0999 µM,27.3% and 38% and 31.1%
same,"viability, T/C",compound 0.316 µM,24.3% (2×) and 23.9%
same,IC50,curve of compound,0.0128 µM and 0.00492 µM and 0.0157 µM
